From US11236055B2 (Venenum Biodesign, LLC, priority 2016, dated 2022)

Legend:
[1] = tested on: Mouse STC-1 cells; test: STC-1 GLP-1 assay; format: cell-based; conditions: GLP-1 secretion, 2 h, coded A-C, read-out: Mouse STC-1 HTRF GLP-1 Activity (EC50)
Outline: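 Cells were seeded two days before in charcoal-stripped FBS medium, then exposed 2 h at 37 °C to compounds (12-point half-log series) in HBSS with protease inhibitors, DPP-IV inhibitor and 0.1% fatty acid free BSA. Active GLP-1 in supernatants measured by HTRF; EC50 derived.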

[2] = Pharmacokinetic profile in mice; format: in vivo; conditions: mouse; fasted male Hilltop mice, 10 mg/kg oral gavage, plasma, mean of three mice
Outline: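 Fasted 8-week-old male Hilltop mice received 10 mg/kg by oral gavage in 20% PEG400/80% 0.5% CMC + 0.25% Tween-80. Plasma was sampled at 0–4 h, with at most 3 draws per mouse, and measured by LC-MS/MS (0.1–500 ng/mL standards). Cmax and AUC were derived non-compartmentally; values are means of three mice.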

Row | EC50 [1] | Cmax [2] | SMILES
1 | 100 to 999 nM | 7.8 ng/mL | CCc1cnccc1-c1cccc(C(C)(C)N(CCCC(=O)NCCS(=O)(=O)O)S(=O)(=O)c2cccc(Cl)c2C)c1 [Compound 20AC, 2-(4-(3-chloro-N-(2-(3-(3-ethylpyridin-4-yl)phenyl)propan-2-yl)-2-methylphenylsulfonamido)butanamido)ethanesulfonic acid]
2 | 100 to 999 nM | 4.2 ng/mL | CCc1cnccc1-c1cccc([C@H](C)N(CCCC(=O)NCCS(=O)(=O)O)S(=O)(=O)c2cccc(Cl)c2C)c1 [Compound 21AQ, (S)-2-(4-(3-chloro-N-(1-(3-(3-ethylpyridin-4-yl)phenyl)ethyl)-2-methylphenylsulfonamido)butanamido)ethanesulfonic acid]
3 | 100 to 999 nM | 1.6 ng/mL | CCc1cnccc1-c1cccc([C@H](C)N(CCCC(=O)NCCS(=O)(=O)NCC(=O)O)S(=O)(=O)c2cccc(Cl)c2C)c1 [Compound 21AT, (S) 2-(3-(4-(3-chloro-2-methyl-N-(1-(3-(3-ethylpyridin-4-yl)phenyl)ethyl)phenylsulfonamido)butanamido)ethylsulfonamido)acetic acid]
4 | 100 to 999 nM | 0.3 ng/mL | CCc1cnccc1-c1cccc([C@H](C)N(CCCC(=O)NCCS(=O)(=O)NCC(=O)O)S(=O)(=O)c2ccccc2C(F)(F)F)c1 [Compound 20BG]
5 | 100 to 999 nM | 1080 ng/mL | Cc1cnccc1-c1cccc(C(C)(C)N(CCCC(=O)O)S(=O)(=O)c2ccccc2C(F)(F)F)c1 [Compound 14, 4-(N-(2-(3-(3-methylpyridin-4-yl)phenyl)propan-2-yl)-2-(trifluoromethyl)phenylsulfonamido)butanoic acid]
6 | 100 to 999 nM | 7.6 ng/mL | Cc1cnccc1-c1cccc([C@H](C)N(CCCC(=O)NCCS(=O)(=O)NCCC(=O)O)S(=O)(=O)c2cccc(Cl)c2C)c1 [Compound 21AL]
7 | 100 to 999 nM | 128 ng/mL | Cc1cnccc1-c1cccc(C(C)(C)NS(=O)(=O)c2cccc(C(F)(F)F)c2)c1 [Compound 5AA, N-(2-(3-(3-methylpyridin-4-yl)phenyl)propan-2-yl)-3-(trifluoromethyl)benzenesulfonamide]
8 | 1000 to 30000 nM | 0.8 ng/mL | Cc1cnccc1-c1cccc([C@H](C)N(CCCCNC(=O)NCS(=O)(=O)O)S(=O)(=O)c2ccccc2C(F)(F)F)c1 [Compound 28AC, (S)-(3-(4-(N-(1-(3-(3-methylpyridin-4-yl)phenyl)ethyl)-2-(trifluoromethyl)phenylsulfonamido)butyl)ureido)methanesulfonic acid]
9 | 100 to 999 nM | 2.6 ng/mL | Cc1cnccc1-c1cccc([C@H](C)N(CCCC(=O)NCCNS(=O)(=O)CCC(=O)O)S(=O)(=O)c2cccc(Cl)c2C)c1 [Compound 26AB]
10 | 100 to 999 nM | 0.7 ng/mL | Cc1cnccc1-c1cccc([C@H](C)N(CCCCNC(=O)NCCS(=O)(=O)NCC(=O)O)S(=O)(=O)c2ccccc2C(F)(F)F)c1 [Compound 28AA, (S)-2-(3-(4-(N-(1-(3-(3-methylpyridin-4-yl)phenyl)ethyl)-2-(trifluoromethyl)phenylsulfonamido)butyl)ureido)ethanesulfonamido acetic acid]
11 | 1000 to 30000 nM | 0.6 ng/mL | Cc1cnccc1-c1cccc([C@H](C)N(CCCCC(=O)NCCS(=O)(=O)NCCC(=O)O)S(=O)(=O)c2ccccc2C(F)(F)F)c1 [Compound 20BM]
12 | 100 to 999 nM | 2.5 ng/mL | Cc1cnccc1-c1cccc(C(C)(C)N(CCCNC(=O)NCS(=O)(=O)O)S(=O)(=O)c2cccc(Cl)c2C)c1 [Compound 29, (3-(3-((3-Chloro-2-methyl-N-(2-(3-(3-methylpyridin-4-yl)phenyl)propan-2-yl)phenyl)sulfonamide)propyl)ureido) methanesulfonic acid]
13 | 100 to 999 nM | 4.6 ng/mL | CCc1cnccc1-c1cccc([C@H](C)N(CCCCNC(=O)NCS(=O)(=O)O)S(=O)(=O)c2ccccc2C(F)(F)F)c1 [Compound 28AH, (S)-(3-(4-(N-(1-(3-(3-ethylpyridin-4-yl)phenyl)ethyl)-2-(trifluoromethyl)phenylsulfonamido)butyl)ureido)methanesulfonic acid]
14 | 100 to 999 nM | 2.1 ng/mL | CCc1cnccc1-c1cccc(C2CN(C(=O)CS(=O)(=O)O)CCN2S(=O)(=O)c2cccc(Cl)c2C)c1 (stereo not shown) [Compound 49, 2-(4-((3-Chloro-2-methylphenyl)sulfonyl)-3-(3-(3-ethylpyridin-4-yl)phenyl)piperazin-1-yl)-2-oxoethanesulfonic acid]
15 | 1000 to 30000 nM | 0.9 ng/mL | Cc1cnccc1-c1cccc([C@H](C)N(CCCCC(=O)NCCS(=O)(=O)O)S(=O)(=O)c2cccc(Cl)c2C)c1 [Compound 20AH, (S)-2-(5-(3-chloro-2-methyl-N-(1-(3-(3-methylpyridin-4-yl)phenyl)ethyl)phenylsulfonamido)pentanamido)ethanesulfonic acid]
16 | < 100 nM | 5 ng/mL | CCc1cnccc1-c1cccc(C(C)(C)N(CCCC(=O)NCCS(=O)(=O)O)S(=O)(=O)c2ccccc2C(F)(F)F)c1 [Compound 20, 2-(4-(N-(2-(3-(3-ethylpyridin-4-yl)phenyl)propan-2-yl)-2-(trifluoromethyl)-phenylsulfonamido)butanamido)ethanesulfonic acid]
17 | 100 to 999 nM | 3.6 ng/mL | Cc1cnccc1-c1cccc([C@H](C)N(CCCC(=O)NCCNS(=O)(=O)NCC(=O)O)S(=O)(=O)c2cccc(Cl)c2C)c1 [Compound 38]
